Reference: publication PMC9048745, “Physicochemical investigation of a novel curcumin diethyl γ-aminobutyrate, a carbamate ester prodrug of curcumin with enhanced anti-neuroinflammatory activity” (PLoS ONE, 2022)
≈ marks a conversion by molar mass, not a printed value.

Key:
[1] = tested on: NO production in LPS-stimulated BV-2 microglial cells; test: Nitric oxide assay (Griess reagent); format: cell-based, murine; settings: 10 μM, 12 h pre-incubation, then 1 μg/mL LPS 24 h; compared with curcumin
Procedure: BV-2 microglial cells were plated in a 24-well plate at a density of 2 × 10^5 per well for 24 h. The cells were pre-incubated for 12 h with curcumin (10 μM), CUR-2GE (10 μM), medium (DMEM), or a vehicle (0.5% DMSO). The cells were then induced with 1 μg/mL LPS for 24 h. The culture medium samples were collected and analyzed for nitric oxide (NO) and cytokines (TNF- and IL-6) using NO and enzyme-linked immunoassay (ELISA) assays, respectively.
Nitric oxide (NO) production was determined by measuring nitrite, the NO metabolite, using Griess reagent. Briefly, the culture medium (100 μL) was added with 1% sulfanilamide (50 μL) and incubated for 5 min. Then, a solution of 0.1% N-(1-naphthyl)ethylenediamine dihydrochloride (50 μL) was added and incubated for 5 min. The absorbance was measured at 520 nm using the microplate reader, and the nitrite concentration was calculated against a calibration curve using NaNO₂ as a standard.

[2] = Solubility mimicking gastrointestinal pH, with and without 0.5% SLS; dose number (D0); format: physicochemical; settings: for solubility at 1 h: thermodynamic from solid
Procedure: For solubility mimicking gastrointestinal pH, an excess amount of CUR-2GE (1 mg) was added to a vial containing 2 mL of buffer pH 1.2, 4.5 or 6.8 with and without a surfactant (0.5% SLS). The mixture was sonicated for 1 h before orbital shaking at 37°C at 100 rpm for 1 h. After that, the mixture was centrifuged at 25°C at 14,000 rpm for 10 min prior to UPLC analysis. Experiments were performed in triplicate. The dose number (D0) at different media was determined and the BSC solubility class was assigned. (see S1 Appendix).
(§1) S1 Appendix. Experimental procedures
(§2) The solubility category was classified according to USP [1] as very soluble (>1000 mg/mL), freely soluble (100-1000 mg/mL), soluble (33-100 mg/mL), sparingly soluble (10-33 mg/mL), slightly soluble (1-10 mg/mL), very slightly soluble (0.1-1 mg/mL) and practically […]
(§3) The percentage of CUR-2GE in the undissociated form at various pH values were calculated based on Henderson-Hasselbalch using Eq. 1:
(§4) %Undissociated form = 100 - antilog (pH-pKa) x 100 (1)
Where pH; pH value of the medium for solubilization, pKa; negative logarithm of the dissociation constant (Ka) of CUR-2GE with computed using the Marvin (Product version: 21.8.0) of ChemAxon (Budapest, Hungary) (http://www.chemaxon.com) accessed on June 2021.
The dose number (D0) was calculated to assign the BSC solubility class, the D0 for each pH buffer solution without surfactant was calculated using the following Eq. 2: […]
Where M0 is the highest dose strength (mg) of capsule equivalent to curcumin, the adopted dose of CUR-2GE is 927 mg equivalent to curcumin 500 mg dose. V0 is the initial gastric volume (≈250 mL), Cs is the saturation solubility of CUR-2GE in buffer solution without surfactant (mg/mL). Drugs with D0 < 1 in pH 1.2, 4.5 and 6.8 are considered as high solubility drugs. Drugs with D0 > 1 in any of the buffer solutions are classified as low solubility drugs.

[3] = Solubility in water, buffer pH 4.5 and ethanol (UPLC); format: physicochemical; settings: for solubility at 1 h: thermodynamic from solid
Procedure: An excess amount of CUR-2GE (2 mg) was added to 2 mL of three solvents, water, phosphate buffer pH 4.5 and ethanol. The samples were sonicated at 25°C for 1 h and then placed on an orbital shaker at 100 rpm at 25°C for 1 h. The obtained mixture was then centrifuged at 25°C at 14,000 rpm for 10 min [37, 38]. The supernatant was analyzed using UPLC and the solubility of CUR-2GE in each medium was determined. Experiments were performed in triplicate. The solubility category was classified according to USP [39]. The percentage of CUR-2GE in the undissociated form at various pH values was calculated based on the Henderson-Hasselbalch equation [40] (see S1 Appendix).
as §1, §2, §3, §4
Where pH; pH value of the medium for solubilization, pKa; negative logarithm of the dissociation constant (Ka) of CUR-2GE with computed using the Marvin (Product version: 21.8.0) of ChemAxon (Budapest, Hungary) (http://www.chemaxon.com) accessed on June 2021. […]

[4] = M0 927 mg, V0 250 mL, Cs at 37°C without 0.5% SLS
[5] = 25°C, <LOQ refers to less than 0.05 μg/mL

CCOC(=O)CCCNC(=O)Oc1ccc(/C=C/C(=O)/C=C(O)/C=C/c2ccc(OC(=O)NCCCC(=O)OCC)c(OC)c2)cc1OC [CUR-2GE, Curcumin diethyl γ-aminobutyrate]
inhibition of NO production [1]: to a greater extent than curcumin
Solubility, buffer pH 1.2 ([2]; 37°C, without SLS, <LOQ refers to less than 0.05 μg/mL): <LOQ
D0 x 10^3 (dose number), buffer pH 1.2 [2, 4]: 74.16 x 10^3
D0 x 10^3 (dose number), buffer pH 4.5 [2, 4]: 5.80 x 10^3
D0 x 10^3 (dose number), buffer pH 6.8 [2, 4]: 10.89 x 10^3
degradation during solubility test ([2]; all media except buffer pH 1.2 with SLS): less than 10%
degradation during solubility test ([2]; buffer pH 1.2 with SLS, 37°C): more than 10%
solubility at 1 h ([2]; buffer pH 4.5 with 0.5% SLS, pH 4.5, aqueous with cosolvent or surfactant or cyclodextrin, 37°C + 0.5% SLS, read-out: Solubility, buffer pH 4.5): 23.35 ± 0.18 µg/mL
solubility at 1 h ([2]; buffer pH 4.5 without SLS, pH 4.5, aqueous buffer, 37°C, without SLS, read-out: Solubility, buffer pH 4.5): 0.64 ± 0.51 µg/mL (≈ 0.937 µM)
solubility at 1 h ([2]; buffer pH 6.8 with 0.5% SLS, pH 6.8, aqueous with cosolvent or surfactant or cyclodextrin, 37°C + 0.5% SLS, read-out: Solubility, buffer pH 6.8): 148 ± 38.5 µg/mL
solubility at 1 h ([2]; buffer pH 6.8 without SLS, pH 6.8, aqueous buffer, 37°C, without SLS, read-out: Solubility, buffer pH 6.8): 0.34 ± 0.5 µg/mL (≈ 0.498 µM)
solubility at 1 h ([2]; buffers pH 1.2, 4.5 and 6.8 without surfactant, aqueous buffer, pH 1.2-6.8, 37°C, without SLS, read-out: Solubility in buffers at all tested pH): < 1 µg/mL
D0 (dose number) in buffers at all tested pH ([2]; pH 1.2-6.8, 37°C, without SLS): > 1
Solubility, buffer pH 4.5 [3, 5]: <LOQ
Solubility, water [3, 5]: <LOQ
solubility at 1 h ([3]; ethanol, organic solvent or mixture, 25°C, read-out: Solubility, ethanol): 17.9 ± 1.76 µg/mL (≈ 26.1 µM)
USP solubility classification ([3]; in water, buffer pH 4.5 and ethanol, practically insoluble = <0.1 mg/mL): practically insoluble
solubility at 1 h ([3]; phosphate buffer pH 4.5, pH 4.5, aqueous buffer, 25°C, <LOQ refers to less than 0.05 μg/mL, read-out: Solubility, buffer pH 4.5): < 0.05 µg/mL
solubility at 1 h ([3]; water, 25°C, <LOQ refers to less than 0.05 μg/mL, read-out: Solubility, water): < 0.05 µg/mL
